Key:
Assay type in all cases: functional
[1] = species: Homo sapiens; assay: Percent viscosity reduction after 15 min was tested for in vitro mucolytic activity using pooled human sputum adjusted to pH 7.5 and compared with saline by 0.03 M solution
[2] = species: Homo sapiens; assay: Percent viscosity reduction after 15 min was tested for in vitro mucolytic activity using pooled human sputum adjusted to pH 7.5 and compared with saline by 0.03 M solution of the compound
[3] = species: Homo sapiens; assay: Percent viscosity reduction after 5 min was tested for in vitro mucolytic activity using pooled human sputum adjusted to pH 7.5 and compared with saline by 0.03 M solution of the compound
[4] = species: Homo sapiens; assay: Percent viscosity reduction after 10 min was tested for in vitro mucolytic activity using pooled human sputum adjusted to pH 7.5 and compared with saline by 0.03 M solution of the compound
[5] = species: Homo sapiens; assay: Percent viscosity reduction after 15 min was tested for in vitro mucolytic activity using pooled human sputum adjusted to pH 7.5 and compared with 0.06 M NAC

Structure (SMILES)	Viscosity reduction [1] [%]	Viscosity [2] [%]	Viscosity [3] [%]	Viscosity [4] [%]	Viscosity [5] [%]
NCCN.O=C(O)CNC(=O)c1cccc(NC(=O)CS)c1	44				
O=C(O)CNC(=O)c1cccc(NC(=O)CS)c1	60	90	64	84	
O=C(O)CNC(=O)c1ccc(NC(=O)CS)cc1	73				15
O=C([O-])CNC(=O)c1cccc(NC(=O)CS)c1.[Na+]	56				
CC(=O)N[C@@H](CS)C(=O)O [ACETYLCYSTEINE]		31	27	38	
N.O=C(O)CNC(=O)c1cccc(NC(=O)CS)c1	59				

Source: ChEMBL document CHEMBL1123116, “N-[[(Mercaptoacetyl)amino]benzoyl]glycines as mucolytic agents” (1985)
